Patent US12448655B2, “Antibiotic susceptibility of microorganisms and related methods and systems” (CALIFORNIA INSTITUTE OF TECHNOLOGY, priority 2017, dated 2025)

Experiments:
Neisseria gonorrhoeae [1] = experiment: AST by inaccessible DNA without enhancing treatment, static incubation time course, qPCR (Example 7); assay type: cell-based; details: penicillin-susceptible isolate ng_15; 1 μg/mL PEN; MHB; DNaseI secondary step
Description: Antibiotic susceptibility test was performed with methods herein described relying on b-lactam-induced cellular lysis, or cell-wall damage, to generate differences in DNA accessibility between the unexposed and exposed tubes. No enhancing treatment is performed in this example. In this example DNaseI is used to degrade the DNA made accessible by beta-lactam induced damage over incubation times larger than what is tested in examples 1-6 (incubation times >30 minutes)
The layout of this experiment is illustrated in FIG. 14 according to which a penicillin-susceptible isolate is incubated with penicillin for 15 min-6 hours. At each time point, DNaseI will be added to degrade the accessible DNA, then the DNaseI will be inactivated simultaneously with the lysis of the remaining cells. The quantified nucleic acids represent those from the cells with inaccessible DNA throughout the antibiotic exposure and incubation with DNaseI.
The treated and untreated samples were incubated at 37° C. for 15 minutes, Ihr, 2 hr, 3 hr, 4 hr, 5 hr, 6 hr. At each time point, bring the culture tubes into the BSC and incubate an aliquot of the contents with DNaseI to degrade the accessible DNA. • 8. secondary incubation of treated and untreated samples to degrade accessible DNA […]

Neisseria gonorrhoeae [2] = experiment: Two-step nuc-aAST on Ng clinical urine samples and their isolates, TNP enhancer (Examples 35, 37); assay type: cell-based; details: antibiotic-resistant samples and isolates (Sample #3, #4); 1 μg/mL 30 min, then TNP 3-5 min, DNaseI
Description: Clinical sample nuc-aAST. Suspensions of clinical urine samples were prepared as described above. All suspensions were generated, and the ABX-exposure step initiated within 90 min of sample donation. The initial ABX-exposure was performed by incubating 50 μL control and treated samples at 37° C. in PCR tube strips on a BioRad C1000 Thermal Cycler. Treated samples consisted of […] of suspension and 1.25 μL aliquot of PEN or CRO (40 μg/mL). ABX were replaced with NF—H2O in control samples. After 30 min of incubation, samples were vortexed and quickly spun on a benchtop microcentrifuge (Labnet) at 2,000×g for 2-3 sec, and 2.7 μL TNP (100 mM) was added to each sample for the enhancement step. Samples were then immediately vortexed, spun on a benchtop microcentrifuge (Labnet) at 2,000×g for 2-3 sec, and incubated at 37° C. for 3-5 min. After the enhancement step, 20 μL from each sample was extracted by diluting 5× in QuickExtract DNA Extraction Solution (Lucigen) and heating for 6 min at 65° C. followed by 4 min at 98° C. on a BioRad C1000 Thermal Cycler. All sample handling following ABX exposure was performed using a multichannel pipette; qPCR and calculation of percentage accessibility were performed as previously described, with the modification that the qPCR mix included 2 μL of template per 10 μL PCR reaction instead of 1 μL template per 10 μL reaction. […]

penicillin
antibiotic exposure time needed for a detectable CT ratio without enhancer (Neisseria gonorrhoeae [1]): ≥ 3 h | mean percentage accessibility of DNA (Neisseria gonorrhoeae [2]): < 46%
